Experimental data taken from patent US11352350B2, “IRAK degraders and uses thereof” (Kymera Therapeutics, Inc., priority 2018, dated 2022).

Columns and labels:
C57BL/6 mice = assay: IMQ (imiquimod) induced psoriasis; type: in vivo, mouse; details: oral dosing; FIG. 36
Method: A model of psoriasis includes the effects of degrader on epidermal hyperplasia development induced by daily topical application of 5% imiquimod in C57BL/6 mice. On each of Days 0 to 6, mice had 5% imiquimod cream administered topically on left ear and shaved back skin. Control mice (no imiquimod group) received control cream without imiquimod. […] The last dosing was on Day 6 for all mice. All dosing was at the same time (+/−1 hour) each day. For the BID groups there was no less than 9 and no more than 15 hours between doses. Readouts were body weight, PASI score, and skin thickness. Body weight was measured 3 times/week, starting on Day −3. Once on each of Days 0, 3, 5, 6, and 7, back and ear thickness was measured with calipers. Each measurement was performed blind, by a person unaware of the group or previous measurement. On Day 7, approximately 24 hours after the last imiquimod application, all mice were euthanized and blood collected via cardiac bleed into EDTA tubes. Plasma was isolated, and frozen. Tissues of interest were removed, weighed, recorded and frozen.

IL-6 = IL-6 secretion in hPBMC using R848 stimulation; type: cell-based, human; details: Homo sapiens, 20 h; read-out: IL-6 Secretion in hPBMC, R848 as stim, t = 20 h: IC50
OCI-LY10 [1] = assay: CTG Cell Viability Assay - OCI-LY10; type: cell-based, human; details: Homo sapiens, OCI-LY10, 4 days, read-out: CTG Cell Viability Assay - OCI-LY10: Average external-IC50
How it was run: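 Viability read by CellTiter-Glo luminescence after 4 days at 37° C under 5% CO2 with compound (top 10 μM final, 1:3 steps, 9 doses, DMSO 0.2%). Three-parameter logistic fit gave IC50.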

AIOLOS [2] = biological target: T1, AIOLOS (Homo sapiens (Human), UniProt Q96SW2+Q9UKT9); assay: AIOLOS degradation in OCI-LY10 (DC50); type: cell-based
SU-DHL6 = SU-DHL6 viability, CTG; type: cell-based; details: Homo sapiens, SU-DHL-6; MYD88 WT; read-out: SU-DHL6 CTG IC50
IRAK4 [3] = biological target: T2, IRAK4 (Homo sapiens (Human), UniProt Q9NWZ3); assay: IRAK4 degradation in OCI-LY10 (DC50); type: cell-based; details: read-out: IRAK4 OCI-LY10 DC50
SU-DHL2 = SU-DHL2 viability, CTG; type: cell-based; details: Homo sapiens, SU-DHL-2; MYD88 MUT; read-out: SU-DHL2 CTG IC50
OCI-LY19 = OCI-LY19 viability, CTG; type: cell-based; details: Homo sapiens, OCI-LY19; MYD88 WT; read-out: OCI-LY19 CTG IC50
IKAROS [4] = biological target: T3, IKAROS (Homo sapiens (Human), UniProt Q13422+Q96SW2); assay: IKAROS degradation in OCI-LY10 (DC50); type: cell-based
IFIT1 = assay: Interferon response IFIT1 in OCI-LY10 tumor xenograft; type: in vivo; details: sample time 24 h
IFIT3 = assay: Interferon response IFIT3 in OCI-LY10 tumor xenograft; type: in vivo; details: sample time 24 h
OCI-LY3 = OCI-LY3 viability, CTG; type: cell-based; details: Homo sapiens, MYD88 MUT
IRAK4 [5] = biological target: T2, IRAK4; assay: IRAK4 degradation in OCI-LY10 tumor xenograft; type: in vivo; details: OCI-LY10 tumor xenograft, sample time 24 h
U2932 = U2932 viability, CTG; type: cell-based; details: Homo sapiens, U2932; MYD88 WT; read-out: U2932 CTG IC50
IKAROS [6] = biological target: T3, IKAROS; assay: Ikaros degradation in OCI-LY10 tumor xenograft; type: in vivo; details: sample time 24 h
AIOLOS [7] = biological target: T1, AIOLOS; assay: Aiolos degradation in OCI-LY10 tumor xenograft; type: in vivo; details: sample time 24 h
IRAK4 [8] = biological target: T2, IRAK4; assay: IRAK4 MSD degradation in OCI-LY10; type: cell-based; details: OCI-LY10, 4 hrs, MSD; read-out: IRAK4 MSD degradation in OCI-LY10 at 4 hrs: Average external-Abs DC50
How it was run: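 Remaining IRAK4 quantified by electrochemiluminescent MSD sandwich assay with two anti-IRAK4 antibodies. Compounds were dosed as 8 concentrations in 1:3 steps from a 1 to 10 μM final top on OCI-LY10 cells, incubated 4 to 24 h at 37° C. under 5% CO2. DC50 fitted with a three-parameter logistic curve.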

OCI-LY10 [9] = assay: OCI-LY10 viability, CTG; type: cell-based; details: Homo sapiens, OCI-Ly10; MYD88 MUT; read-out: OCI-LY10 CTG IC50
OCI-LY10 tumor xenograft = assay: OCI-LY10 tumor xenograft, tumor volume; type: in vivo; details: single agent, PO, QD, 24, 72, and 240 mg/kg (FIG. 21)
IRAK4 [10] = biological target: T2, IRAK4; assay: IRAK4 WB degradation (DC50); type: cell-based

T3 sequence (Q13422 whole entry): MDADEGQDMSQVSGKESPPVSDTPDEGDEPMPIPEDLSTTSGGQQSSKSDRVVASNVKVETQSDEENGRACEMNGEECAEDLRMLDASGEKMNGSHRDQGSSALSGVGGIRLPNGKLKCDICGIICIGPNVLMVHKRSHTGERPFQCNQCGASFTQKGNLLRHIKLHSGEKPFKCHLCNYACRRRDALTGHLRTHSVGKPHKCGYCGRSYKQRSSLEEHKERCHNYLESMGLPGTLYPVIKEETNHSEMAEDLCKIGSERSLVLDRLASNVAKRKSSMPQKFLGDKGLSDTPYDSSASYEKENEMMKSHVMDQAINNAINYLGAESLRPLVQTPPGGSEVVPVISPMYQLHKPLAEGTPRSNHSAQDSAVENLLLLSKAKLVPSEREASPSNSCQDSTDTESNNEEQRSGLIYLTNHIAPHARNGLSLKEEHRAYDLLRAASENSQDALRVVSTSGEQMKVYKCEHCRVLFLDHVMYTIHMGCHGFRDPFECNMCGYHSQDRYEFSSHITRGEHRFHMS
T3 sequence (Q96SW2 whole entry): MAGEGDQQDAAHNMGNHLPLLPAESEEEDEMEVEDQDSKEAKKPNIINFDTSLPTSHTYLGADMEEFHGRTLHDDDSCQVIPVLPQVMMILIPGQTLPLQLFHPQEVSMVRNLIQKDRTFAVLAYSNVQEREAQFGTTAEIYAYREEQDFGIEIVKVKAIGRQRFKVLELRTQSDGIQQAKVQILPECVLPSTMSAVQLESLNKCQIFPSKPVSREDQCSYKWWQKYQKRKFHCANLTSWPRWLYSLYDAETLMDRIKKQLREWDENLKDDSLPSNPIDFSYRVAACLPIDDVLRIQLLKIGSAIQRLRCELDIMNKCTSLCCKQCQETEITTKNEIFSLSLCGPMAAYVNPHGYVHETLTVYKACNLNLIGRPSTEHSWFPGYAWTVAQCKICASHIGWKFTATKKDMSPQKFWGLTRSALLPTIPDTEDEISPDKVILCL
T3 sequence (Q16531 whole entry partner): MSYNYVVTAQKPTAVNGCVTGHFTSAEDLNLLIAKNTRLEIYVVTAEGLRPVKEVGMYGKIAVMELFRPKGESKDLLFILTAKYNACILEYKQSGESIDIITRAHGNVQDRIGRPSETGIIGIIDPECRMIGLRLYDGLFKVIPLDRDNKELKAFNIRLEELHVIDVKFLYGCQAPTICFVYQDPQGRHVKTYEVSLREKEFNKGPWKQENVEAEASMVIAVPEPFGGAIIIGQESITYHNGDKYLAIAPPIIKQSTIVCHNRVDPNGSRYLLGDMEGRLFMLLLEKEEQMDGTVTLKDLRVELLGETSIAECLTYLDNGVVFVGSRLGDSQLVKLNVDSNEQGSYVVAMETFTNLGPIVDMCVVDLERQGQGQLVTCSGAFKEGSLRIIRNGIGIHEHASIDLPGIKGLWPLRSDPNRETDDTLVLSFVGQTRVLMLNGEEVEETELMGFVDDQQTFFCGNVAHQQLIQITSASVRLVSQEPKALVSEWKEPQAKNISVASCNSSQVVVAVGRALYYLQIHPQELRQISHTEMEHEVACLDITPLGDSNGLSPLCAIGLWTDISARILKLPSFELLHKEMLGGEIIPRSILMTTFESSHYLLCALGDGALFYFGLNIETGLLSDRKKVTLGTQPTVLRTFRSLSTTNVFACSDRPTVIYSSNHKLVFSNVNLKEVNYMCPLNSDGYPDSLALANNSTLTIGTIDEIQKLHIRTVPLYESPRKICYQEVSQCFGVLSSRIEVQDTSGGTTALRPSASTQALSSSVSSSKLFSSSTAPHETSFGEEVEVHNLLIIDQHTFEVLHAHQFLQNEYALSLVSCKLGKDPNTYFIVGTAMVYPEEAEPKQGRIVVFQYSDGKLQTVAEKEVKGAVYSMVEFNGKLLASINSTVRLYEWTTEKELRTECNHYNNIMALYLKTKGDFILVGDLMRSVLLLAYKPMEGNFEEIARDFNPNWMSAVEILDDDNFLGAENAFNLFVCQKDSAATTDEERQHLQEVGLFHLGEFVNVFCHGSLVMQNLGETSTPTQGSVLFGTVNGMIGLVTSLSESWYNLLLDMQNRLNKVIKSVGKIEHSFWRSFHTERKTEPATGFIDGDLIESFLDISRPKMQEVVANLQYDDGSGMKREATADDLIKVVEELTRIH
T1 sequence (Q9UKT9 whole entry): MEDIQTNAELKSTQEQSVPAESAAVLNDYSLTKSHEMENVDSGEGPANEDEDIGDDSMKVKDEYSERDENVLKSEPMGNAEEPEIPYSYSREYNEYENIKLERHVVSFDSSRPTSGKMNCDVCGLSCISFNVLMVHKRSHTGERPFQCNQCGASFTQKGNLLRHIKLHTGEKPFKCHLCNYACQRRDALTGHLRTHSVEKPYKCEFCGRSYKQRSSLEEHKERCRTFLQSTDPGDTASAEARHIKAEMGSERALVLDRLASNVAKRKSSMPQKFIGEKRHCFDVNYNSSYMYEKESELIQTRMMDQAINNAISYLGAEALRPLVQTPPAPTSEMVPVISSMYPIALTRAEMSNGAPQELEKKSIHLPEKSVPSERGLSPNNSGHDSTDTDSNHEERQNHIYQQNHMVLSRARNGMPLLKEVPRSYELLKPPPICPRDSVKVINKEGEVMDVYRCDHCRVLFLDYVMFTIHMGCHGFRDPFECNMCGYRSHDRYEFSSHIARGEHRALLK
T1 sequence (Q96SW2 whole entry): as the sequence (Q96SW2 whole entry) above
T1 sequence (Q16531 whole entry partner): as the sequence (Q16531 whole entry partner) above
T2 sequence (Q9NWZ3 whole entry): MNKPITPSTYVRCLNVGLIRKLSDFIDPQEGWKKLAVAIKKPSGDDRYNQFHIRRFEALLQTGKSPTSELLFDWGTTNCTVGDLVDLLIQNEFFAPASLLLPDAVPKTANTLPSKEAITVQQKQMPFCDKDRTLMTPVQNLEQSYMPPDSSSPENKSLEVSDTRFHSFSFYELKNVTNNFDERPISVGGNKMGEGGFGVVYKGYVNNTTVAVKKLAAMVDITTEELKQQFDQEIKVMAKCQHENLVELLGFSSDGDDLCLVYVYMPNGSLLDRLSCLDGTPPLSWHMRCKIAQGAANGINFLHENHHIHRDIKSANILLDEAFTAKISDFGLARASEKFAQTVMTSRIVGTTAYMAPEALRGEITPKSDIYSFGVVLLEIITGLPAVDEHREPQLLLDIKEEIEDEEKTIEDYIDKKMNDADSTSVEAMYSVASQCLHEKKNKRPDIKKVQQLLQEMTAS

Cn1c(=O)n(C2CCC(=O)NC2=O)c2cccc(C#CCOC3CCN(C[C@H]4CC[C@H](n5cc(NC(=O)c6cnn7ccc(N8C[C@H]9C[C@@H]8CO9)nc67)c(C(F)F)n5)CC4)CC3)c21 (stereo partly drawn) [I-417, N-[3-(difluoromethyl)-1-[4-[[4-[3-[1-(2,6-dioxo-3-piperidyl)-3-methyl-2-oxo-benzimidazol-4-yl]prop-2-ynoxy]-1-piperidyl]methyl]cyclohexyl]pyrazol-4-yl]-5-[(1R,4R)-2-oxa-5-azabicyclo[2.2.1]heptan-5-yl]pyrazolo[1,5-a]pyrimidine-3-carboxamide]
skin thickening in mice treated with topical imiquimod (C57BL/6 mice): significantly reduced skin thickening | IC50 (IL-6): < 1 nM | IC50 (OCI-LY10 [1]; 96 h): > 1000 nM

O=C1CCC(N2C(=O)c3cccc(NCCCOC4CCN(C[C@H]5CC[C@H](n6cc(NC(=O)c7cnn8ccc(N9CCOCC9)nc78)c(C(F)F)n6)CC5)CC4)c3C2=O)C(=O)N1 (some centres unmarked) [I-208]
DC50 (AIOLOS [2]): < 3 nM | IC50 (SU-DHL6): 833 nM | DC50 (IRAK4 [3]): 20 nM | IC50 (SU-DHL2): 366 nM | IC50 (OCI-LY19): 1700 nM | DC50 (IKAROS [4]): 3 nM | Interferon Response IFIT1 Increase (Fold) (IFIT1; 24 mg/kg PO QD): >24.4 Fold | Interferon Response IFIT1 Increase (Fold) (IFIT1; 72 mg/kg PO QD): >41.5 Fold | Interferon Response IFIT1 Increase (Fold) (IFIT1; 240 mg/kg PO QD): >38.7 Fold | Interferon Response IFIT3 Increase (Fold) (IFIT3; 24 mg/kg PO QD): >43.1 Fold | Interferon Response IFIT3 Increase (Fold) (IFIT3; 72 mg/kg PO QD): >64.0 Fold | Interferon Response IFIT3 Increase (Fold) (IFIT3; 240 mg/kg PO QD): >59.7 Fold | IC50 (OCI-LY10 [1]; OCI-Ly10, 96 h): < 50 nM | IC50 (OCI-LY3): 3000 nM | IRAK4 ↓ (% Control) (IRAK4 [5]; 24 mg/kg PO QD): 57.8 % Control | IRAK4 ↓ (% Control) (IRAK4 [5]; 72 mg/kg PO QD): 78.7 % Control | IRAK4 ↓ (% Control) (IRAK4 [5]; 240 mg/kg PO QD): 86.5 % Control | IC50 (U2932): 1800 nM | Ikaros ↓ (% Control) (IKAROS [6]; 24 mg/kg PO QD): 46.3 % Control | Ikaros ↓ (% Control) (IKAROS [6]; 72 mg/kg PO QD): 71.0 % Control | Ikaros ↓ (% Control) (IKAROS [6]; 240 mg/kg PO QD): 81.2 % Control | Aiolos ↓ (% Control) (AIOLOS [7]; 24 mg/kg PO QD): 30.9 % Control | Aiolos ↓ (% Control) (AIOLOS [7]; 72 mg/kg PO QD): 62.4 % Control | Aiolos ↓ (% Control) (AIOLOS [7]; 240 mg/kg PO QD): 68.6 % Control | DC50 (IRAK4 [8]): 10 to 100 nM | IC50 (OCI-LY10 [9]): 36 nM | Regression of OCI-LY10 tumor xenograft (OCI-LY10 tumor xenograft): with regression | Regression of OCI-LY10 tumor xenograft (OCI-LY10 tumor xenograft; listed as 1-208): drives regression | DC50 (IRAK4 [10]): 130 nM
